The record followed here is patent US12565476B2, “2,5-disubstituted 3-methyl pyrazines and 2,5,6-trisubstituted 3-methyl pyrazines as allosteric SHP2 inhibitors” (Revolution Medicines, Inc., priority 2016, dated 2026).

Structures are written as SMILES.

SHP2, sequence (Q06124 whole entry): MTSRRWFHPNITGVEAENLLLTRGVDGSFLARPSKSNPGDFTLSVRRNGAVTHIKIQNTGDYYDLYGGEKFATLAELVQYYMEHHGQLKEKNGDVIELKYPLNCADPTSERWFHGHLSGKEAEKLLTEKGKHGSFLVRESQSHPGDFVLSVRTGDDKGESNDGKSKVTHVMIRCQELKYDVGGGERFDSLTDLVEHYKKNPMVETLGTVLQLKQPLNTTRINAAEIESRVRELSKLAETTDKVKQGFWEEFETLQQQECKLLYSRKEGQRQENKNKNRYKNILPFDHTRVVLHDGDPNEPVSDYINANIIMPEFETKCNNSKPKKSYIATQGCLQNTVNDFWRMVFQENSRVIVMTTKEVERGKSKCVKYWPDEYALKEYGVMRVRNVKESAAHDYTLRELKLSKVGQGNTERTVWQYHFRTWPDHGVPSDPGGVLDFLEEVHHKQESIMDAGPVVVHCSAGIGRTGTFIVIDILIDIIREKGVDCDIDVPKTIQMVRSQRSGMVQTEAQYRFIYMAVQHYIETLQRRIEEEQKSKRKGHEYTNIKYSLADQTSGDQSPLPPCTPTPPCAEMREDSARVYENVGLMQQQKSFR

The assay has as its target SHP2 (Homo sapiens (Human), UniProt Q06124). The experiment in a line: SHP2 allosteric inhibition assay (DiFMUP prompt fluorescence). In kind it is biochemical. To be noted: 0.2 nM SHP2 incubated with 0.5 μM Activating Peptide 1 or 2, surrogate substrate DiFMUP, compound 0.00005-10 μM. The source says: Without wishing to be bound by theory, SHP is allosterically activated through binding of bis-tyrosyl-phosphorylated peptides to its Src Homology 2 (SH2) domains. The latter activation step leads to the release of the auto-inhibitory interface of SHP2, which in turn renders the SHP2 protein tyrosine phosphatase (PTP) active and available for substrate recognition and reaction catalysis. The catalytic activity of SHP2 was monitored using the surrogate substrate DiFMUP in a prompt fluorescence assay format.
After 30-60-minutes incubation at 25° C., the surrogate substrate DiFMUP (Invitrogen, Cat #D6567) was added to the reaction and activity was determined by a kinetic read using a microplate reader (Envision, Perkin-Elmer or Spectramax M5, Molecular Devices). The excitation and emission wavelengths were 340 nm and 450 nm, respectively. Initial rates were determined from a linear fit of the data, and the inhibitor dose response curves were analyzed using normalized IC50 regression curve fitting with control based normalization.
As to `Cc1nc(N2CCC3(CCC[C@H]3N)CC2)cnc1Sc1cccc(Cl)c1Cl` [Example 1, (R)-8-(5-((2,3-dichlorophenyl)thio)-6-methylpyrazin-2-yl)-8-azaspiro[4.5]decan-1-amine], the IC50 (as a rule, the point on the concentration scale where inhibition reaches its midpoint) is 83 nM.
With `Cc1nc(N2CCC3(CCC[C@H]3N)CC2)cnc1-c1cccc(Cl)c1Cl` [Example 23, (R)-8-(5-(2,3-dichlorophenyl)-6-methylpyrazin-2-yl)-8-azaspiro[4.5]decan-1-amine] the figure was 43 nM; with `Cc1nc(N2CCC(C)(N)CC2)cnc1-c1cccc(Cl)c1Cl` [Example 24, 1-(5-(2,3-dichlorophenyl)-6-methylpyrazin-2-yl)-4-methylpiperidin-4-amine], 104 nM.
